How the values were obtained:
PDAC2 cells = assay: CD133 flow cytometry; format: cell-based, human; settings: 1.25 or 2.5 µM, 72 h
Experimental: Cells were analyzed with a 4-laser Attune NxT Acoustic Cytometer (ThermoFisher Scientific). […] For lysosomes quantification, Acridine Orange (AO) (A1301, Thermo Fisher Scientific, Waltham, MA, USA) or Lysotracker Deep Red (DR) (L12492, Molecular probes, Life Technologies, Waltham, MA, USA) were used. AO fluorescence was assessed with two combinations of excitation and emission spectra: BL1 (Ex488/Em695/40, equal to the far-red channel (>670 nm)) and BL3 (Ex488/Em695/40, equal to the far-red channel (>670 nm)) Lysotracker DR fluorescence was assessed with RL1 (Ex638/Em670/14). […] For all assays, DAPI was used to mark and exclude dead cells, and data were analyzed using the software FlowJo v9.3 (Tree Star Inc., Ashland, OR, USA).
Figure S3. […] Apoptosis was determined 72 h post treatment initiation. […]

FLT3(ITD,D835V) = assay: KINOMEscan; format: binding, human; settings: 1 µM
ERK5 = biological target: T1, ERK5 (Homo sapiens, UniProt Q13164); assay: KINOMEscan; format: binding; settings: read-out: % Ctrl
T1 construct: purchased DiscoveRx KINOMEscan
T1 sequence (Q13164 whole entry): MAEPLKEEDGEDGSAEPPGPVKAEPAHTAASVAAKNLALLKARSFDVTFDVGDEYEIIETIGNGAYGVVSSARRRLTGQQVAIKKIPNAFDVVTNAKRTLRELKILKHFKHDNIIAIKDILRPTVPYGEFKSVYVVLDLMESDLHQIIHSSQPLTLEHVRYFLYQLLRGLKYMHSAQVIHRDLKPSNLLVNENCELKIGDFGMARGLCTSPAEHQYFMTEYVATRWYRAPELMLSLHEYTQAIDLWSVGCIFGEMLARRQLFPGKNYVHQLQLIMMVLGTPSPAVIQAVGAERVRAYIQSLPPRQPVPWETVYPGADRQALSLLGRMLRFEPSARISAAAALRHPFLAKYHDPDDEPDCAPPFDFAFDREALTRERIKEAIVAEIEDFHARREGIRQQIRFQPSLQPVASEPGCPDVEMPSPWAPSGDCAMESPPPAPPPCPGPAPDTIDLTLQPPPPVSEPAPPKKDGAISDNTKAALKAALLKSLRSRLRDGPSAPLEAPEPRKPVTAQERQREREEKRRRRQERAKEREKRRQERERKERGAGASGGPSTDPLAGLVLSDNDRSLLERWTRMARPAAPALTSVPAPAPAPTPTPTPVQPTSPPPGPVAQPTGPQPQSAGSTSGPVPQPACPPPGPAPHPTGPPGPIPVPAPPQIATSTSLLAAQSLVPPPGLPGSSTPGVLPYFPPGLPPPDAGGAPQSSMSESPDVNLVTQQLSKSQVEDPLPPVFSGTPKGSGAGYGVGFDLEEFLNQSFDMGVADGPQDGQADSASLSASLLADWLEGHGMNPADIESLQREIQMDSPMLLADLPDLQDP

PIM2 = biological target: T2, PIM2 (Homo sapiens, UniProt Q9P1W9); assay: KINOMEscan; format: binding; settings: read-out: % Ctrl
T2 construct: purchased DiscoveRx KINOMEscan

PIK3CA = biological target: T3, PIK3CA (Homo sapiens, UniProt P42336); assay: KINOMEscan; format: binding; settings: read-out: % Ctrl
T3 construct: purchased DiscoveRx KINOMEscan
T3 sequence (P42336 whole entry): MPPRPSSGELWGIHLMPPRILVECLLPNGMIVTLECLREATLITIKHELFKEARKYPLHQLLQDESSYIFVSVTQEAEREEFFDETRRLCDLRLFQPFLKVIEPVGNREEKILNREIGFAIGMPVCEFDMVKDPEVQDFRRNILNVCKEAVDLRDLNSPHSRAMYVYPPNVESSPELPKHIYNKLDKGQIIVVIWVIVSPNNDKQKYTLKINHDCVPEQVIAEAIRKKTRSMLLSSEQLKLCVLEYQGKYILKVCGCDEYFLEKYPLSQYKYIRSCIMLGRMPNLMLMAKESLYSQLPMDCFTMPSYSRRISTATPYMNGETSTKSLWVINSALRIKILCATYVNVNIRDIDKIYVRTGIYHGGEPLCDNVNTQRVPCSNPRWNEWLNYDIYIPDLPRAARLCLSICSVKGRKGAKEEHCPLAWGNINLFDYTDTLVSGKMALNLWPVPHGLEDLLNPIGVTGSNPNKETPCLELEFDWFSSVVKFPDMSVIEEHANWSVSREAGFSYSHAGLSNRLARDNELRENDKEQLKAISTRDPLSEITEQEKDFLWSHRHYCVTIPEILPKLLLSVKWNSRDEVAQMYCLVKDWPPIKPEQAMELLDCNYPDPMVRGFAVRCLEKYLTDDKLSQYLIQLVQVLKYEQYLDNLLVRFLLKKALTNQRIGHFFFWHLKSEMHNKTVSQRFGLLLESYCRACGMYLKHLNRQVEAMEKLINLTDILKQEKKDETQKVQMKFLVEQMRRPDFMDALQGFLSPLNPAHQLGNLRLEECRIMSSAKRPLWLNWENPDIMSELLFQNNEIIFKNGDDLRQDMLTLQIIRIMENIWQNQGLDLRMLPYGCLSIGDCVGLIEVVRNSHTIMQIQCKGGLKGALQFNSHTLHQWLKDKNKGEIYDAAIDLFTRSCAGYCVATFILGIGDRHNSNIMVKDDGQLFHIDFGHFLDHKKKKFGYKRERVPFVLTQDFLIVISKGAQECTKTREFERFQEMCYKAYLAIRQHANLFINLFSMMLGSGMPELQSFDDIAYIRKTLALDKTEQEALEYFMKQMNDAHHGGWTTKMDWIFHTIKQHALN

JAK2(JH1D.-cat.) = biological target: T4, JAK2(JH1D.-cat.) (Homo sapiens, UniProt O60674); assay: KINOMEscan; format: binding; settings: read-out: % Ctrl
T4 construct: JAK2(JH1D.-cat.); purchased DiscoveRx KINOMEscan

ABL1(Q252H)-P = biological target: T5, ABL1(Q252H)-P (Homo sapiens, UniProt P00519, Q252H); assay: KINOMEscan; format: binding; settings: read-out: % Ctrl
T5 construct: purchased DiscoveRx KINOMEscan

RSK3(KD1-N-t.) = biological target: T6, RSK3(KD1-N-t.) (Homo sapiens, UniProt Q15349); assay: KINOMEscan; format: binding; settings: read-out: % Ctrl
T6 construct: RSK3(KD1-N-t.); purchased DiscoveRx KINOMEscan

PRKCD = biological target: T7, PRKCD (Homo sapiens, UniProt Q05655); assay: KINOMEscan; format: binding; settings: read-out: % Ctrl
T7 construct: purchased DiscoveRx KINOMEscan

ERK3 = biological target: T8, ERK3 (Homo sapiens, UniProt Q16659); assay: KINOMEscan; format: binding; settings: read-out: % Ctrl
T8 construct: purchased DiscoveRx KINOMEscan

DRAK1 = biological target: T9, DRAK1 (Homo sapiens, UniProt Q9UEE5); assay: KINOMEscan; format: binding; settings: read-out: % Ctrl
T9 construct: purchased DiscoveRx KINOMEscan
T9 sequence (Q9UEE5 whole entry): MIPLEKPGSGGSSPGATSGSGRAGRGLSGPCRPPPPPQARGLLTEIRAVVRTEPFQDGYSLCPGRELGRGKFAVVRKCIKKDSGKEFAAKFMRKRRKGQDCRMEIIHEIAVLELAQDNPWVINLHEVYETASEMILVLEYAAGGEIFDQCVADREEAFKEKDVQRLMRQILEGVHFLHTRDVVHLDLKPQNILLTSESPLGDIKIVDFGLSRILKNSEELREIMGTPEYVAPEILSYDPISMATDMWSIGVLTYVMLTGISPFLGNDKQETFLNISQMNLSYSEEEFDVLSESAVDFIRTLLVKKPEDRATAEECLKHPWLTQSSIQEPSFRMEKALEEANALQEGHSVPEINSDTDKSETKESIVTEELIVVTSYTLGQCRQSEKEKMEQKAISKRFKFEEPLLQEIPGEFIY

GAK = biological target: T10, GAK (Homo sapiens, UniProt O14976); assay: KINOMEscan; format: binding; settings: read-out: % Ctrl
T10 construct: purchased DiscoveRx KINOMEscan

PIK3CA(E545K) = biological target: T11, PIK3CA(E545K) (Homo sapiens, UniProt P42336, E545K); assay: KINOMEscan; format: binding; settings: read-out: % Ctrl
T11 construct: purchased DiscoveRx KINOMEscan
T11 sequence (P42336 whole entry E545K): as the sequence (P42336 whole entry) above, with E545K counted along it

S6K1 = biological target: T12, S6K1 (Homo sapiens, UniProt P23443); assay: KINOMEscan; format: binding; settings: read-out: % Ctrl
T12 construct: purchased DiscoveRx KINOMEscan
T12 sequence (P23443 whole entry): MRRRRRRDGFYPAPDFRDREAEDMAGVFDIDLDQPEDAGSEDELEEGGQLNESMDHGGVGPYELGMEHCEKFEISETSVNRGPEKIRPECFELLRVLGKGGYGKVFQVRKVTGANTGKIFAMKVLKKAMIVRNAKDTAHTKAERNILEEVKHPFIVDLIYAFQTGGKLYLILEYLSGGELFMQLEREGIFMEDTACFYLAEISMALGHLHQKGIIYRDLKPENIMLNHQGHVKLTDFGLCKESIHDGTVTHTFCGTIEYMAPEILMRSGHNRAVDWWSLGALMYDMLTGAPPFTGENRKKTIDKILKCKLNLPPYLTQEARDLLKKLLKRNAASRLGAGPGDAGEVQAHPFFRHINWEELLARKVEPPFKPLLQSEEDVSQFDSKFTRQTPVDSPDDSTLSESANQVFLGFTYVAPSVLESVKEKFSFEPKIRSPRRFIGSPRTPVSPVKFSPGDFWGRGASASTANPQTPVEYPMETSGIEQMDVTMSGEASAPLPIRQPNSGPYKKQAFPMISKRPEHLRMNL

PAK2 = biological target: T13, PAK2 (Homo sapiens, UniProt Q13177); assay: KINOMEscan; format: binding; settings: read-out: % Ctrl
T13 construct: purchased DiscoveRx KINOMEscan

PFTAIRE2 = biological target: T14, PFTAIRE2 (Homo sapiens, UniProt Q96Q40); assay: KINOMEscan; format: binding; settings: read-out: % Ctrl
T14 construct: purchased DiscoveRx KINOMEscan
T14 sequence (Q96Q40 whole entry): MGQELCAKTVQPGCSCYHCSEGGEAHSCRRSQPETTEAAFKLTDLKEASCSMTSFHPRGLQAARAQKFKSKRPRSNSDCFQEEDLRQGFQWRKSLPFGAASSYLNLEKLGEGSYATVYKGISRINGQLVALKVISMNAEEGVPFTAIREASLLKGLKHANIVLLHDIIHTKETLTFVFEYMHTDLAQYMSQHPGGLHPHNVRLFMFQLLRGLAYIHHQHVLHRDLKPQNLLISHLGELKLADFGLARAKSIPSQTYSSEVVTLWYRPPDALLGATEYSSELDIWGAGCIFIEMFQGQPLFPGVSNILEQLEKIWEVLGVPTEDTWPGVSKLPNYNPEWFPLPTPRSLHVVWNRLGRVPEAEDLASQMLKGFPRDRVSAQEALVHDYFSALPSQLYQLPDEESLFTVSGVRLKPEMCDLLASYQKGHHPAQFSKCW

CSNK1G2 = biological target: T15, CSNK1G2 (Homo sapiens, UniProt P78368); assay: KINOMEscan; format: binding; settings: read-out: % Ctrl
T15 construct: purchased DiscoveRx KINOMEscan

PLK2 = biological target: T16, PLK2 (Homo sapiens, UniProt Q9NYY3); assay: KINOMEscan; format: binding; settings: read-out: % Ctrl
T16 construct: purchased DiscoveRx KINOMEscan
T16 sequence (Q9NYY3 whole entry): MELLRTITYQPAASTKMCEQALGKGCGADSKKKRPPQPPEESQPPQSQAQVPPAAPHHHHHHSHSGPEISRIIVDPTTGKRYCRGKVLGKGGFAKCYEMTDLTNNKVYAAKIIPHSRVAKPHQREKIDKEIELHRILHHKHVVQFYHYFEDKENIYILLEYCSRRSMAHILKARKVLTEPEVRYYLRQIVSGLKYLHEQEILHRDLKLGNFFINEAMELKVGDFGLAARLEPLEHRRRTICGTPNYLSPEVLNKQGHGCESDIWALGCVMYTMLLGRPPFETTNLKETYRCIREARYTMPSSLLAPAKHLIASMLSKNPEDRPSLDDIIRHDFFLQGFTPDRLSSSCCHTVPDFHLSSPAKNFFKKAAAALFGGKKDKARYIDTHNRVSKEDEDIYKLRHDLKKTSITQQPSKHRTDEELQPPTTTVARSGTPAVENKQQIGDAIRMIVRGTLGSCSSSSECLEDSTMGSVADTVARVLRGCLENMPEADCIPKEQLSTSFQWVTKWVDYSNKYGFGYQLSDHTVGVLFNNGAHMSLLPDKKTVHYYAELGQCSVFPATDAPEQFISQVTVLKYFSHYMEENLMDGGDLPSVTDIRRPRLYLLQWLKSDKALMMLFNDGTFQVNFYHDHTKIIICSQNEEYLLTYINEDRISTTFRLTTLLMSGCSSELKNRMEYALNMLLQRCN

ERK2 = biological target: T17, ERK2 (Homo sapiens, UniProt P28482); assay: KINOMEscan; format: binding; settings: read-out: % Ctrl
T17 construct: purchased DiscoveRx KINOMEscan

EPHA5 = biological target: T18, EPHA5 (Homo sapiens, UniProt P54756); assay: KINOMEscan; format: binding; settings: read-out: % Ctrl
T18 construct: purchased DiscoveRx KINOMEscan

p38-alpha = biological target: T19, p38-alpha (Homo sapiens, UniProt Q16539); assay: KINOMEscan; format: binding; settings: read-out: % Ctrl
T19 construct: purchased DiscoveRx KINOMEscan

AMPK-alpha1 = biological target: T20, AMPK-alpha1 (Homo sapiens, UniProt Q13131); assay: KINOMEscan; format: binding; settings: read-out: % Ctrl
T20 construct: purchased DiscoveRx KINOMEscan

MARK2 = biological target: T21, MARK2 (Homo sapiens, UniProt Q7KZI7); assay: KINOMEscan; format: binding; settings: read-out: % Ctrl
T21 construct: purchased DiscoveRx KINOMEscan

MERTK = biological target: T22, MERTK (Homo sapiens, UniProt Q12866); assay: KINOMEscan; format: binding; settings: read-out: % Ctrl
T22 construct: purchased DiscoveRx KINOMEscan
T22 sequence (Q12866 21-999): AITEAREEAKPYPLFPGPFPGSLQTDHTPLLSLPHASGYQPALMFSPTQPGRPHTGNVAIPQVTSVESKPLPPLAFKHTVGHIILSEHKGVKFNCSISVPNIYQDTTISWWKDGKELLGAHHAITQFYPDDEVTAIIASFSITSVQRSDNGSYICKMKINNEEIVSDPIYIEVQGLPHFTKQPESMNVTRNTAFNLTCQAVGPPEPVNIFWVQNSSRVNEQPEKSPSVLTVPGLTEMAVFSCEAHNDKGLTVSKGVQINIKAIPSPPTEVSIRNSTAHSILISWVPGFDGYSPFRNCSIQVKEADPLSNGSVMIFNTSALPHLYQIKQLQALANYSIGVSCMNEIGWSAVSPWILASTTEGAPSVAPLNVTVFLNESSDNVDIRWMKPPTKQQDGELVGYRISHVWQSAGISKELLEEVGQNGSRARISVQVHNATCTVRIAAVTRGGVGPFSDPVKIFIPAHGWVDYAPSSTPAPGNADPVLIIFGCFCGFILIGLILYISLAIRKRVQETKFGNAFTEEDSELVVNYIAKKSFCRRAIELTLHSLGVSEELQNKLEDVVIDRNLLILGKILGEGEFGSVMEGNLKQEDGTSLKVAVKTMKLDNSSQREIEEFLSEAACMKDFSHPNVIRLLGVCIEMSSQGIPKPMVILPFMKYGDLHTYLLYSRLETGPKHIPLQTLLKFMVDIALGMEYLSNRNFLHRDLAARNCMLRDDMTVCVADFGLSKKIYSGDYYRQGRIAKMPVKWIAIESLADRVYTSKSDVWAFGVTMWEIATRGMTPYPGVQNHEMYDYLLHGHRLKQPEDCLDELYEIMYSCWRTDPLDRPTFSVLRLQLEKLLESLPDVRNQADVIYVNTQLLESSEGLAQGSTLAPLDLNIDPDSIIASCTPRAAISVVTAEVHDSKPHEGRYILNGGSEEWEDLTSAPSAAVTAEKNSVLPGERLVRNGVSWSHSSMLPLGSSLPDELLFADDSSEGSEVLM

TBK1 = biological target: T23, TBK1 (Homo sapiens, UniProt Q9UHD2); assay: KINOMEscan; format: binding; settings: read-out: % Ctrl
T23 construct: purchased DiscoveRx KINOMEscan

[1] = system: implanted invasive glioblastoma spheroids or gliobastomas PDXs; parameters: method as in PMID 28270132; settings: 100 mg/kg; cited from earlier work

CN1CCC(CNc2ccc3ncc(C(=O)Nc4cccc(OC(F)(F)F)c4)n3n2)CC1 [Cpd 2]
percentage of CD133+ cells (PDAC2 cells): reduced
% Ctrl (FLT3(ITD,D835V)): 9.1%
remaining binding at 1 µM (ERK5): 100%
remaining binding at 1 µM (PIM2): 72%
remaining binding at 1 µM (PIK3CA): 100%
remaining binding at 1 µM (JAK2(JH1D.-cat.)): 96%
remaining binding at 1 µM (ABL1(Q252H)-P): 100%
remaining binding at 1 µM (RSK3(KD1-N-t.)): 93%
remaining binding at 1 µM (PRKCD): 80%
remaining binding at 1 µM (ERK3): 100%
remaining binding at 1 µM (DRAK1): 97%
remaining binding at 1 µM (GAK): 89%
remaining binding at 1 µM (PIK3CA(E545K)): 87%
remaining binding at 1 µM (S6K1): 93%
remaining binding at 1 µM (PAK2): 94%
remaining binding at 1 µM (PFTAIRE2): 92%
remaining binding at 1 µM (CSNK1G2): 100%
remaining binding at 1 µM (PLK2): 91%
remaining binding at 1 µM (ERK2): 100%
remaining binding at 1 µM (EPHA5): 100%
remaining binding at 1 µM (p38-alpha): 96%
remaining binding at 1 µM (AMPK-alpha1): 100%
remaining binding at 1 µM (MARK2): 96%
remaining binding at 1 µM (MERTK): 88%
remaining binding at 1 µM (TBK1): 100%

Fc1ccc(-n2cc(CCCCN3CCC4(CC3)OCc3ccccc34)c3ccccc32)cc1 [siramesine]
efficacy in vivo [1]: ineffective in vivo
